Results as given in article PMC9045296, “Development of Antifungal Peptides against Cryptococcus neoformans; Leveraging Knowledge about the cdc50Δ Mutant Susceptibility for Lead Compound Development” (Microbiology Spectrum, 2022).
Values after ≈ are worked out from the molar mass of the structure shown. Residues, ends and D or L forms follow the SMILES beside them. *: point of attachment. Palmitoyl = CCCCCCCCCCCCCCCC(=O)*; Myristoyl = CCCCCCCCCCCCCC(=O)*; Decanoyl = CCCCCCCCCC(=O)*; Hexanoyl = CCCCCC(=O)*

Assays:
Format in all cases: cell-based, Cryptococcus neoformans
[1] = test system: C. neoformans wild-type strain H99; experiment: microbe, parasite or virus in culture; settings: for MIC H99: Table S1, drug alone, wild type H99; for MIC: drug alone, H99 wild type, CLSI broth microdilution, RPMI, 2.5*10^3 cells/mL, 37°C, read at 24 and 48 h
Protocol: (§1) Our assays followed standard CLSI protocol for broth microdilution assays using yeasts ([32]). Microbes were passaged in YPD media at 37°C with mixing for 2 days before harvesting with an inoculation loop to prepare monocultures on Sabouraud Dextrose Agar (SDA) plates. Monocultures on SDA plates were incubated for 2 days at 37°C before harvesting cells for microdilution assays. RPMI media (100 μL) was charged to each of the 96 wells in a 96-well plate, with an additional 100 μL in the first column. Peptide-DMSO solution (4 μL) at 12.8 mg/mL was charged to each of the wells in the first column. The 100 μL was serially diluted by a factor of 2 from the first column to the 11th column. Microbe inoculant was then prepared. An inoculation loop was used to transfer 1–3 colonies of cells to 1 mL phosphate buffer solution (PBS). The PBS and microbe solution was made uniform by vortex mixing. Cell concentration was computed by comparing the absorbance at 530 nm to 1x McFarland standard solution and multiplying the resulting ratio by 10^7 cell/mL conversion factor. Plate inoculant was prepared by diluting the PBS microbe solution to 5000 cell/mL, in RPMI media. A 100 μL aliquot of cells was transferred to each of the wells on the plate other than column 11 for the no growth control. The operating volume was 200 μL, with 500 CFU per well for a final concentration of 2.5*10^3 cells/mL. Inoculated plates were incubated for 48 h at 37°C and read at 24 and 48 h ([33]).

cdc50Δ mutant strain = settings: Table S1, drug alone
Protocol: as §1

C. neoformans H99 = settings: for MIC of caspofungin in the presence of 0.5 μg/mL peptide: H99, checkerboard, caspofungin alone 16 μg/mL; for FIC H99 Caspofungin: Table S1, concentration of caspofungin in combination with the peptide; for FIC H99 Peptide: Table S1, concentration of peptide in combination with caspofungin
Protocol: (§2) Again, 200 μL was the operating volume, 500CFU per well, 2.5*10^3 cell/mL. Plates were incubated for 48 h at 37°C and read thereafter. The Fractional Inhibitory Concentration Index were calculated in Equation 1: FICIndex=FICA/MICA+FICB/MICB

ΔCDC50 mutant strain = settings: for FIC ΔCDC50 Caspofungin: Table S1, concentration of caspofungin in combination with the peptide; for FIC ΔCDC50 Peptide: Table S1, concentration of peptide in combination with caspofungin
Protocol: as §2

[2] = test system: exofacial PS on C. neoformans cells; experiment: AF350-annexin V flow cytometry assay; settings: 0.128 mg/mL peptide, 5*10^6 cell/mL, 20 min at 25°C, triplicate; control 0.2 ± 0.1%
Source text: We sought to determine whether the activities of the peptides were related to the lipid-flipping activity of the P4-ATPase. […] The intensity of the AF350-annexin V signal corresponds to concentration of PS on the exofacial side of the membrane. The propidium iodine signal corresponds to cell viability. […] Single cells were first selected and gated based on morphology to ensure homogeneity among the cell population (4A, 4B). We examined cells with low propidium iodine intensity (PI-A < 9 RU) and high AF350-annexin V intensity (Annexin V-A > 9 RU) (4C, 4D). Under these gating parameters there should be, respectively, low nonspecific cell death and high exofacial PS.
Stock microbes were defrosted from the –80°C freezer and were passed twice for 48 h each in YPD media. The YPD media was removed by spinning down and the supernatant was decanted. Pelletized cells were resuspended in 1 mL PBS media and washed for 5 min with incubation at 25°C and 250 RPM. Washed cells were spun down again and suspended in 1 mL of PBS solution. cells were diluted 20-fold into 1 mL fungal working solution in an eppendorf. Cell concentration was quantified via comparison to 1X McFarlain’s standard on a plate reader using the absorbance value at 530 nm. An aliquot of 1*10^6 cells in 100 μL was created (1*10^7cell/mL). A 100 μL aliquot of peptide working solution at 0.256 mg/mL was added to the cell suspension for final operating parameters of 200 μL, 0.128 mg/mL peptide, and 5*10^6cell/mL. The cells were incubated for 20 min at 25°C and 250RPM. Baseline and experimental samples were prepared in triplicate. Cells were stained using an operating concentration of 0.001 mg/mL Propidium Iodine (PI) and a 40-fold dilution of Alexa Fluor 350 labeled annexin V as per manufactures instructions. After staining the cells, samples were spun down and supernatant decanted. Cells were then fixed in 4% formaldehyde for 5 min. Fixed cells were spun down and supernatant decanted and resuspended in 400 μL 1% formaldehyde for flowcytometry. Samples were collected at a slow flow rate on a MACS Quant 10 device (Miltenyi Biotech, Auburn, CA) with 50,000 events collected per injection.

Compound	MIC H99 [1] [µg/mL]	FIC H99 Caspofungin (C. neoformans H99; H99) [µg/mL]	FIC H99 Peptide (C. neoformans H99; H99) [µg/mL]	FIC ΔCDC50 Caspofungin (ΔCDC50 mutant strain) [µg/mL]	FIC ΔCDC50 Peptide (ΔCDC50 mutant strain) [µg/mL]	other results
CCCCCCCCCC(=O)N[C@@H](CO)C(=O)N[C@@H](CCC(=O)O)C(=O)N[C@@H](CO)C(=O)NCC(=O)N[C@H](C(=O)N[C@@H](C)C(=O)N[C@@H](Cc1c[nH]c2ccccc12)C(=O)NCC(=O)NCC(=O)N[C@H](C(=O)N[C@@H](CCCCN)C(=O)N[C@@H](CCCCN)C(=O)N[C@@H](CC(N)=O)C(=O)N[C@@H](Cc1ccc(O)cc1)C(=O)N[C@@H](C)C(=O)O)[C@@H](C)CC)[C@@H](C)CC [AS15-Da] (Decanoyl-SESGIAWGGIKKNYA-OH)	> 128					
CCCCCC(=O)N[C@@H](CO)C(=O)N[C@@H](CCC(=O)O)C(=O)N[C@@H](CO)C(=O)NCC(=O)N[C@H](C(=O)N[C@@H](C)C(=O)N[C@@H](Cc1c[nH]c2ccccc12)C(=O)NCC(=O)NCC(=O)N[C@H](C(=O)N[C@@H](CCCCN)C(=O)N[C@@H](CCCCN)C(=O)N[C@@H](CC(N)=O)C(=O)N[C@@H](Cc1ccc(O)cc1)C(=O)N[C@@H](C)C(=O)O)[C@@H](C)CC)[C@@H](C)CC [AS15-Ha] (Hexanoyl-SESGIAWGGIKKNYA-OH)	> 128					
CCCCCCCCCCCCCC(=O)N[C@@H](CO)C(=O)N[C@@H](CCC(=O)O)C(=O)N[C@@H](CO)C(=O)NCC(=O)N[C@H](C(=O)N[C@@H](C)C(=O)N[C@@H](Cc1c[nH]c2ccccc12)C(=O)NCC(=O)NCC(=O)N[C@H](C(=O)N[C@@H](CCCCN)C(=O)N[C@@H](CCCCN)C(=O)N[C@@H](CC(N)=O)C(=O)N[C@@H](Cc1ccc(O)cc1)C(=O)N[C@@H](C)C(=O)O)[C@@H](C)CC)[C@@H](C)CC [AS15-Ma] (Myristoyl-SESGIAWGGIKKNYA-OH)	> 128	8	0.5	0.25	0.25	MIC ΔCDC50 (cdc50Δ mutant strain): 8 µg/mL (≈ 4.47 µM); MIC of caspofungin in the presence of 0.5 μg/mL peptide (C. neoformans H99): 8 µg/mL; percentage of cells with low propidium iodine (PI-A < 9 RU) and high AF350-annexin V intensity (Annexin V-A > 9 RU) [2]: 12.1 ± 2.0%
CCCCCCCCCCCCCCCC(=O)N[C@@H](CO)C(=O)N[C@@H](CCC(=O)O)C(=O)N[C@@H](CO)C(=O)NCC(=O)N[C@H](C(=O)N[C@@H](C)C(=O)N[C@@H](Cc1c[nH]c2ccccc12)C(=O)NCC(=O)NCC(=O)N[C@H](C(=O)N[C@@H](CCCCN)C(=O)N[C@@H](CCCCN)C(=O)N[C@@H](CC(N)=O)C(=O)N[C@@H](Cc1ccc(O)cc1)C(=O)N[C@@H](C)C(=O)O)[C@@H](C)CC)[C@@H](C)CC [AS15-Pa] (Palmitoyl-SESGIAWGGIKKNYA-OH)	> 128	8	0.5	2	2	
CCCCCCCCCCCCCCCC(=O)N[C@@H](Cc1c[nH]c2ccccc12)C(=O)NCC(=O)NCC(=O)N[C@H](C(=O)N[C@@H](CCCCN)C(=O)N[C@@H](CCCCN)C(=O)N[C@@H](CC(N)=O)C(=O)N[C@@H](Cc1ccc(O)cc1)C(=O)N[C@@H](C)C(=O)O)[C@@H](C)CC [AW9-Pa] (Palmitoyl-WGGIKKNYA-OH)	> 128	8	0.5	2	1	MIC ΔCDC50 (cdc50Δ mutant strain): 8 µg/mL (≈ 6.28 µM); MIC of caspofungin in the presence of 0.5 μg/mL peptide (C. neoformans H99): 8 µg/mL; FIC Index H99 (C. neoformans H99; Table S1, caspofungin + peptide, H99): 0.5-1; FIC Index ΔCDC50 (ΔCDC50 mutant strain; Table S1, caspofungin + peptide): 0.75
CCCCCCCCCCCCCC(=O)N[C@@H](CO)C(=O)N[C@@H](CCC(=O)O)C(=O)N[C@@H](CO)C(=O)NCC(=O)N[C@H](C(=O)N[C@@H](C)C(=O)N[C@@H](Cc1c[nH]c2ccccc12)C(=O)NCC(=O)NCC(=O)O)[C@@H](C)CC [GS9-Ma] (Myristoyl-SESGIAWGG-OH)	> 128					MIC ΔCDC50 (cdc50Δ mutant strain): > 128 µg/mL
CCCCCCCCCCCCCC(=O)N[C@@H](Cc1c[nH]c2ccccc12)C(=O)NCC(=O)NCC(=O)N[C@H](C(=O)N[C@@H](C)C(=O)N[C@@H](C)C(=O)N[C@@H](CC(N)=O)C(=O)N[C@@H](Cc1ccc(O)cc1)C(=O)N[C@@H](C)C(=O)O)[C@@H](C)CC [K5A;K6A-Ma] (Myristoyl-WGGIAANYA-OH)						MIC [1]: >128 µg/mL; percentage of cells with low propidium iodine (PI-A < 9 RU) and high AF350-annexin V intensity (Annexin V-A > 9 RU) [2]: 1.3 ± 0.9%
CCCCCCCCCCCCCC(=O)N[C@@H](CO)C(=O)NCC(=O)N[C@H](C(=O)N[C@@H](C)C(=O)N[C@@H](Cc1c[nH]c2ccccc12)C(=O)NCC(=O)NCC(=O)N[C@H](C(=O)N[C@@H](CCCCN)C(=O)O)[C@@H](C)CC)[C@@H](C)CC [KS9-Ma] (Myristoyl-SGIAWGGIK-OH)	> 128					
CCCCCCCCCCCCCC(=O)N[C@@H](Cc1c[nH]c2ccccc12)C(=O)NCC(=O)NCC(=O)N[C@H](C(=O)N[C@@H](C)C(=O)N[C@@H](CCCCN)C(=O)N[C@@H](CC(N)=O)C(=O)N[C@@H](Cc1ccc(O)cc1)C(=O)N[C@@H](C)C(=O)O)[C@@H](C)CC [Peptide K5A-Ma] (Myristoyl-WGGIAKNYA-OH)						MIC [1]: >128 µg/mL; percentage of cells with low propidium iodine (PI-A < 9 RU) and high AF350-annexin V intensity (Annexin V-A > 9 RU) [2]: 5.6 ± 0.1%
CCCCCCCCCCCCCC(=O)N[C@@H](Cc1c[nH]c2ccccc12)C(=O)NCC(=O)NCC(=O)N[C@H](C(=O)N[C@@H](CCCCN)C(=O)N[C@@H](C)C(=O)N[C@@H](CC(N)=O)C(=O)N[C@@H](Cc1ccc(O)cc1)C(=O)N[C@@H](C)C(=O)O)[C@@H](C)CC [Peptide K6A-Ma] (Myristoyl-WGGIKANYA-OH)						MIC [1]: >128 µg/mL
CCCCCCCCCCCCCC(=O)N[C@@H](Cc1ccc(O)cc1)C(=O)N[C@H](C(=O)N[C@@H](CC(=O)O)C(=O)NCC(=O)N[C@@H](Cc1ccccc1)C(=O)N1CCC[C@H]1C(=O)N[C@@H](CC(N)=O)C(=O)N[C@@H](CC(C)C)C(=O)N[C@@H](CCCNC(=N)N)C(=O)N[C@@H](CCC(=O)O)C(=O)N[C@@H](CC(=O)O)C(=O)N[C@@H](CCC(=O)O)C(=O)N[C@@H](Cc1c[nH]cn1)C(=O)N[C@@H](Cc1ccccc1)C(=O)N[C@@H](CCC(N)=O)C(=O)O)C(C)C [QY15-Ma] (Myristoyl-YVDGFPNLREDEHFQ-OH)	> 128	8	0.5	1	0.5	
H-SESGIAWGGIKKNYA-OH [AS15]	> 128	8	0.5	1	0.5	
H-YVDGFPNLREDEHFQ-OH [QY15]	> 128	8	0.5	1	0.5	
